Source: patent US20100305201A1 (The Trustees of the University of Pennsylvania, priority 2006, published 2010)
pIC50: −log10 of the molar value.

Assays:
[1] = test system: lung carcinoma A549 tumors; assay: Tumor shrinkage study, multiple injections; assay type: in vivo, mice
Experimental: Tumor shrinkage studies. Human lung carcinoma cell line, A549, was injected subcutaneously at […] per mouse. […] The same injections were repeated after 3, 7, 10, 14, 17 and 21 days. Tumor area (A) was monitored 24 hrs after each injection by measuring two orthogonal dimensions as A=[(L1×L2)/2] for each treatment group. The body weight of the mice was also monitored throughout the experiment.
The tumor shrinkage effect of different carriers was also examined in a multiple-injection experiment. […] TAX in DPBS solution was also used for comparison, with the MTD of 1 mg/kg injected. […] It should be noted here that the weight gaining due to tumor growth (if possible) for all groups was minimal, wherein the largest tumor area gained after 3 weeks was 0.4 cm^2 (FIG. 6A), corresponding to an approximate volume of 0.2 cm^3 (assuming the tumor was spherical in shape). This would have contributed to only 0.2 g of the total weight (assuming the density of tumor is 1 g/ml).
To evaluate the tumor inhibition effect of the different TAX delivery methods in a more quantitative way, the TAX-inhibited tumor growth vs. time plot was fit by applying an exponential model (Simeoni et al., Cancer Res. 64:1094-101 (2004)), incorporating both a tumor growth phase and a tumor shrinkage phase with the TAX addition. The modeling was performed by fit the parameters in the equation (Table 4):
Tumor Area=Σ Ae^t/growth+Be^−t/shrink Equation 7
where t is the time (day), A and tgrowth are constants of the tumor growth phase, and B and tshrink are constants of the TAX-inhibition phase.

A549 tumor xenografts = assay: Tumor study with single tail-vein injection (Example 3); conditions: one week after single injection, 1 mg kg^−1 in ethanol (MTD)
[2] = test system: Human lung-derived carcinoma cells A549; assay: Cytotoxicity assay (MTT); assay type: cell-based; conditions: 72 h, sigmoid dose-response fit
Experimental: Cytotoxicity Assay. TAX-loaded and drug-free micelles at serial dilutions were prepared as above. For comparison, 12 mg/ml TAX in ethanol was mixed with an equal volume of Cremophor® EL followed by sonication for 30 min. The resulting Cremophor EL TAX was diluted with DPBS to obtain desired TAX concentrations. Human lung-derived carcinoma cells A549 were grown in F12 Ham media supplemented with 10% fetal bovine serum and 100 U/ml penicillin and 100 μg/ml streptomycin at 37° C., 5% CO2 to 60-70% confluence. A549 cells (50,000 cell/ml) were seeded in 96-well plates at 5,000 cells per well and cultured for 24 h to allow attachment. […] As control, […] of DPBS was added to cells not exposed to those formulations. After 37° C., 5% CO2 incubation for 72 h, the media were discarded, and 100 μl/well F12 Ham medium and 11 μl/well of 5 mg/ml MTT solution in DPBS was added. The plates were incubated at 37° C. for 3 h and the media were removed again. The intracellular metabolized product MTT formazan was retrieved by addition of 100 μl/well DMSO and incubation at room temperature for 5 min. The plates were read at 550 nm, and the cell viability was calculated as (reading of wells with cells exposed to tested formulations minus the reading of the blank wells) divided by (reading of wells with cells exposed to DPBS minus the reading of the blank wells).
Data Analysis. […]

in vivo = conditions: Nrc nude, mouse
Experimental: (§1) Nrc nude mice were weighed followed by a single tail vein injection of either empty OCL3 micelles and TAX-loaded micelles in different concentrations at 0.2 ml per mouse. After 24 hours, the mice were weighed again. The “maximum tolerated dose” (MTD) was determined to be, and defined as, the dose that caused the mouse body weight loss<10%.

[3] = Maximum tolerated dose (MTD) determination; conditions: nude mice, dose that causes 10% weight loss within 24 h (Example 3)
Experimental: as §1

[4] = exponential model of TAX-inhibited A549 tumor area vs time, injections at MTD

Structure (SMILES): CC(=O)O[C@H]1C(=O)[C@@]2(C)[C@H]([C@H](OC(=O)c3ccccc3)[C@]3(O)C[C@H](OC(=O)[C@H](O)[C@@H](NC(=O)c4ccccc4)c4ccccc4)C(C)=C1C3(C)C)[C@]1(OC(C)=O)CO[C@@H]1C[C@@H]2O [TAX, Paclitaxel]
- tumor growth inhibition (in words) ([1]; A549-bearing mice, multiple injections at MTD, 22 days): modest inhibition of tumor growth
- A, constant of the tumor growth phase [1, 4]: 0.014 cm^2
- B, constant of the TAX-inhibition phase [1, 4]: 0.178 cm^2
- tgrowth, constant of the tumor growth phase [1, 4]: 1.2 week
- tshrink, constant of the TAX-inhibition phase [1, 4]: 8.8 week
- apoptosis in tumor (TUNEL-stained tumor sections) (A549 tumor xenografts): little effect
- pIC50 [2]: 6.49
- MTD at 24 h (in vivo): 1 mg/kg
- maximum tolerated dose (MTD) [3]: 1 mg/kg
